Values quoted from earlier work, collected in patent EP1085079A1, “Treatment compositions for fabrics” (THE PROCTER & GAMBLE COMPANY, priority 1999, dated 2001).

Row | Structure (SMILES) | stability over a wide pH range
1 | Cn1sc2c(c1=O)CCC2 [Promexal, 2-methyl-4,5-trimethylene-4-isothiazolin-3-one] | 4-12
2 | O=c1[nH]sc2ccccc12 [Proxel, 1,2-benzisothiazolin-3-one] | 4-12
